Results: patent publication US4668677A, “4-phenylphthalazine derivatives, their preparation and their use as pharmaceuticals” (Mitsubishi Chemical Industries Limited, priority 1984, dated 1987)

Columns and labels:
[1] = system: blood platelets; assay: Activity to inhibit the aggregation of blood platelets (collagen, ex vivo after oral administration); format: in vivo, rat (male Wistar-ST strain); settings: Rattus norvegicus, Platelet, po, read-out: Inhibitory rate of blood platelet aggregation
Description: Male Wistar-ST strain rats of an average body weight of 250 g were used, a group consisting of 8 animals. The test compound indicated in the following Table 1 was orally administered to rats in the form of a suspension in a 1% tragacanth aqueous solution at 4 ml/Kg (the test compound 10 mg/Kg).
One hour after the administration, blood samples were obtained from the carotid artery by means of a cannule. […] Tubes were turned upside-down and then subjected to centrifugation at 200×g over 15 minutes to assign the supernatant as a platelet-rich plasma (PRP). The residue was further centrifuged at […] over 15 minutes to assign the supernatant as a platelet-poor plasma (PPP). These supernatants were applied for determining the ability to aggregate blood platelets. […] As an aggregation inducing agent, collagen (availale from Hormon-chemie A.G.) was used at a concentration of 7 to 10 μg/ml.
Inhibitory rate to aggregate blood platelets was calculated according to the following equation: [formula] A: […] in the group to which the 1% tragacanth solution alone was given (Control)
B: Aggregation rate in the group to which the tragacanth solution of the test compound was given.

[2] = system: blood flow; settings: Prostaglandins, 25, 549 (1983); cited from earlier work
[3] = system: blood platelet; settings: Drugs, 18, 439 (1979); cited from earlier work
[4] = system: blood platelets; assay: Activity to inhibit the blood platelet adhesion (glass bead method); format: cell-based, rat (male Wistar-ST strain); settings: Rattus norvegicus, read-out: Inhibitory rate of blood platelet adhesion
Description: As experimental animals, there were used male Wistar-ST strain rats of an average body weight of 250 g.
Blood samples were obained from carotid arteries by means of a cannule and immediately admixed with sodium citrate at a volume ratio of 1/10. The mixture was centrifuged at 200×g over 15 minutes to collect the supernatant (platelet-rich plasma: PRP). The PRP was then centrifuged at 2000×g over 15 minutes and the supernatant was removed to give blood platelet pellet.
To the resultant blood platelet pellet was added a 15 mM tris.HCl buffer solution with EDTA (pH 7.4) to resuspend blood platelets therein and then one applied centrifugation at 2000×g over 15 minutes and the supernatant was removed. The resultant washed blood platelets were added to a 0.3 mM tris.HCl buffer solution with CaCl2 (pH 7.4) to resuspend blood platelets therein, whereby there was prepared a blood platelet suspension adjusted to five hundred thousand platelets/μl. To 2 ml of the blood platelet suspension were added 2 μl of a methanolic solution of each test compound and incubation was effected for 15 minutes. Then blood platelet adhesion was determined according to a glass bead method by using a timing blood suction apparatus for determining the blood platelet adhesion.
The number of blood platelets was counted by means of a blood platelet counter.
Inhibitory rate of blood platelet adhesion was calculated according to the following equation: [formula] A: Blood platelet number in the blood platelet suspension passed through a control column
B: Blood platelet number in the blood platelet suspension passed through a bead-packing column

[5] = system: mice; assay: Anti-thrombotic activity: arachidonic acid-induced mortality in mice; format: in vivo, mouse (male ICR-JCL strain); settings: for Survival time of dead mice: arachidonic acid 100 mg/Kg i.v.; for Mortality: arachidonic acid 100 mg/Kg i.v. after 1 hour
Description: Male ICR-JCL strain mice with an average body weight of about 25 g and male New Zealand White rabbits with an average body weight of about 3 Kg were used.
Where mice were used as experimental animals, a suspension of the test compound indicated in Table 3 in a 1% tragacanth aqueous solution was orally administered to animals at 20 ml/Kg. One hour after the administration, an arachidonic acid (PL-biochemical Co., Inc.) solution dissolved in a 0.1M sodium carbonate aqueous solution was intravenously given at 100 mg/Kg. Evaluation of activity was effected with the time from the administration of arachidonic acid up to the death of animals as well as mortality.

[6] = system: PGI2-like substance in vessel walls; assay: Influence on production of PGI2-like substance in vessel walls (ADP aggregation with carotid artery ring); format: in vivo, rat (male Wistar-ST strain); settings: for Aggregation rate with ADP when carotid artery ring added: 1 hour, 10 μM ADP
Description: Male Wistar-ST strain rats with an average weight of about 250 g were used as experimental animals. After fasted for 18 hours, 6.3 ml of blood sample were obtained from corotid artery and immediately thereafter 0.7 ml of an anticoagulant (3.8% sodium citrate) was added and the sample was centrifuged at 200×g over 15 minutes to take platelet-rich plasma (PRP). The same procedures as above were carried out, using 5 to 6 rats, whereby 5-6 ml as normal PRP were stored and employed.
Reference aggregation values were determined by pouring 1 ml each of stored PRP into plastic test tubes, incubating them at 22° C. for 10 minutes and then determining aggregation rate. As an aggregation inducing agent, one employed 10 μM ADP (available from Sigma Co., Inc.)
A suspension of the compound of this invention or aspirin in a 1% aqueous solution of tragacanth was orally given to animals. After 1 hour, 5 mg of carotid artery were cut out in a ring shape and placed into a plastic test tube together with 1 ml of stored PRP. After incubated at 22° C. for 10 minutes, aggregation rate was determined.
Also, non-medicated groups were similarly treated and aggregation rate was determined.
Determination of blood platelet aggregation rate was made by means of an aggregometer.

[7] = system: brain; settings: Am. J. Physiol., 243, H416 (1982); cited from earlier work

Structure (SMILES): CC(=O)Oc1ccccc1C(=O)O [Aspirin, aspirin]
- inhibition at 30 mg/kg [1]: 67.5%
- inhibition at 100 mg/kg [1]: 100%
- activity to increase blood flow (in words) [2]: does not show at all the activity to increase blood flow
- activity to inhibit blood platelet aggregation (in words) [3]: show the activity to inhibit blood platelet aggregation
- inhibition at 300 µM ([4]; 3·10^-4 M): 4%
- inhibition at 30 µM ([4]; 3·10^-5 M): 5.3%
- inhibition at 3 µM ([4]; 3·10^-6 M): 8.4%
- inhibition at 0.3 µM ([4]; 3·10^-7 M): 3.5%
- Survival time of dead mice ([5]; 100 mg/Kg oral): 322 ± 103 s
- Mortality ([5]; 100 mg/Kg oral): 100%
- Survival time of dead mice ([5]; 300 mg/Kg oral): 180 ± 67 s
- Mortality ([5]; 300 mg/Kg oral): 37.5%
- Aggregation rate with ADP when carotid artery ring added ([6]; 30 mg/Kg oral): 45.7%
- Aggregation rate with ADP when carotid artery ring added ([6]; 100 mg/Kg oral): 58.3%
- inhibition of ADP aggregation with PGI2-like substances existing in carotid artery ring (in words) ([6]; from Table 5): said phenomena could not be observed

Structure (SMILES): COc1ccc2c(c1)c(CC(=O)O)c(C)n2C(=O)c1ccc(Cl)cc1 [indomethacin]
- topical blood flow in brain (in words) [7]: did decrease a topical blood flow in brain
- activity to increase blood flow (in words) [2]: does not show at all the activity to increase blood flow
- activity to inhibit blood platelet aggregation (in words) [3]: show the activity to inhibit blood platelet aggregation
